In PMC3914932, “Automated NMR Fragment Based Screening Identified a Novel Interface Blocker to the LARG/RhoA Complex” (PLoS ONE, 2014) one finds Kd data, which are given here for one molecule.

In this experiment the target is T1, RhoA (Homo sapiens, UniProt P61586).
T1 construct: residues 1–193
Kind of experiment: […] HSQC chemical shift perturbation titration; also STD and WaterLOGSY fragment screening. It counts as binding.

T1 sequence (P61586 whole entry, the tested form may be a part): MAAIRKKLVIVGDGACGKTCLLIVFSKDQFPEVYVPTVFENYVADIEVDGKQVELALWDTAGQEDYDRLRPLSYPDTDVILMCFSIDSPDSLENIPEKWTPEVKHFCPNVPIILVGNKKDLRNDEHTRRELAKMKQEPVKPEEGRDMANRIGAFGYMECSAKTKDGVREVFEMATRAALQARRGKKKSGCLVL

For the molecule `c1ccc(COC2CNC2)cc1` [R1], the Kd (commonly a measure of binding affinity in units of concentration) worked out at 110 µM.
